Where two headings read alike, the source gives them in different places.
What was measured:
NF-κB [1] = experiment: NF-κB activation / DNA-binding activity by EMSA in stimulated HeLa cells; assay type: cell-based, human; settings: for effect on NF-κB activation: HeLa cells stimulated with TNFα (PGA1: IL-1 or TNFα); for IC50: Homo sapiens, HeLa cells
Protocol: (§1) Cells used in the experiments described herein were cultured in either RPMI 1640 (Jurkat cells) or DMEM (HeLa and COS cells), supplemented with 10% FBS and antibiotics. Cells were stimulated with either 25 ng/ml TPA, 20 ng/ml recombinant TNFα, or 10 ng/ml interleukin 1β (Sigma). PGA1, 15dPGJ2, T×B2, LTB4, AA and other PGs (Cayman) dissolved in ethanol were used as well, as known in the art (See e.g., Rossi et al., 94:746-750 [1997]). Controls received equal amounts of ethanol. Transfections were performed using Lipofectamine Plus (GIBCO) for HeLa and COS cells and DEAE-dextran (Sigma) for Jurkat cells. Xpress-tagged NIK, Xpress-tagged MEKK1, HA-tagged IKKα, and HA-tagged IKKβ were also used (See e.g., Zandi et al., Science 281:1360-1363 [1998]; and Delhase et al., Science 284:309-313 [1999]). COX2 and cPLA2 expression vectors were obtained from Dr. L. Feng (See also, Hirose et al., J. Am. Soc. Nephrol., 9:408-416 [1998]). PGD synthase was cloned from HT29 colon carcinoma cell line cDNA by PCR and subcloned into a pCDNA3 vector. Cells were lysed in buffer B (50 mM Tris-HCl, pH 7.5, 400 mM NaCl, 1 mM EDTA, 1 mM EGTA, 1% Triton, 0.5% NP-40, 10% glycerol, and supplemented with 20 mM β-glycerophosphate, 10 mM PNPP, 500 mM Na3VO4, 1 mM PMSF, 20 μg/ml aprotinin, 2.5 μg/ml leupeptin, 8.3 μg/ml bestatin, 1.7 μg/ml pepstatin, and 2 mM DTT).
Aliquots of total extracts (15 μg protein) in buffer B were incubated with a ^32P-labeled κB DNA, followed by analysis of DNA-binding activities by EMSA on 4% PAGE gels, as known in the art (See, Rossi et al., supra). Specificity of protein-DNA complexes was verified by supershift with polyclonal antibodies specific for p65 (Rel A).

NF-κB [2] = experiment: NF-κB activation by TPA in human cells expressing very low levels of PPAR-γ; assay type: cell-based; settings: human cells with very low PPAR-γ, data not shown
IKKβ(C179A) = target: T1, IKKβ(C179A) (Homo sapiens, UniProt O14920, C179A); experiment: Recombinant IKKβ(C179A) (Sf9) kinase activity; assay type: biochemical; set-up: FLAG; made in house; host or cells: Sf9 (baculovirus); settings: FIG. 6D; PGA1 data not shown
T1 sequence (O14920 1-756 C179A): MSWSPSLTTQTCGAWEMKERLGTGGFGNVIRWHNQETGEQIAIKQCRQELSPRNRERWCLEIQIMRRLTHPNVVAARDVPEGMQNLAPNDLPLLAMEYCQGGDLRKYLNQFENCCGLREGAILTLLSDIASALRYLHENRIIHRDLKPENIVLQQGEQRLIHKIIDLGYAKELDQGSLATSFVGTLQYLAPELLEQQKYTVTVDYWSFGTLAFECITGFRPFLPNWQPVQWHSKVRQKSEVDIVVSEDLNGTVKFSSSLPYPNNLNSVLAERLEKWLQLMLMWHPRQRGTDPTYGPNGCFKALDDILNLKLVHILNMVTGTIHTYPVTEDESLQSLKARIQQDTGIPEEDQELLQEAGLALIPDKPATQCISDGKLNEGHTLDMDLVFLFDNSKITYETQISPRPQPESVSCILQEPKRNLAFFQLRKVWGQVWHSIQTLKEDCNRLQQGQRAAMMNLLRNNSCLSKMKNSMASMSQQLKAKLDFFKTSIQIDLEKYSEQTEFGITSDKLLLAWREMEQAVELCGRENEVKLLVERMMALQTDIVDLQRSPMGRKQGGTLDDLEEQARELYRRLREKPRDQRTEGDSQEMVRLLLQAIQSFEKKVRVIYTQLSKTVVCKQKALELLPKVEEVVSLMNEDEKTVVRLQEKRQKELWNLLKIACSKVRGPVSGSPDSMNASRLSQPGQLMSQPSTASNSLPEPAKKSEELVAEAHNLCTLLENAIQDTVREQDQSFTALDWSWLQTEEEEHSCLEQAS
Protocol: In addition, recombinant IKKβ was expressed in Sf9 cells and purified as described (Zandi et al., supra). AA, PGs, LTB4, and T×B2 were added to washed imnmunoprecipitates of recombinant IKKβ in kinase buffer to a final volume of 500 μl. After 1.5 hours at 4° C., the immunoprecipitates were washed and the kinase activity determined. Western blot analysis was also performed as known in the art (See e.g., Rossi et al., supra).

p38 = p38 (Homo sapiens, UniProt Q16539); experiment: p38 MAP kinase activation in TPA-stimulated Jurkat cells; assay type: cell-based; set-up: endogenous in cells; host or cells: Jurkat; settings: 24 μM PGA1, TPA
p38, sequence (Q16539 whole entry): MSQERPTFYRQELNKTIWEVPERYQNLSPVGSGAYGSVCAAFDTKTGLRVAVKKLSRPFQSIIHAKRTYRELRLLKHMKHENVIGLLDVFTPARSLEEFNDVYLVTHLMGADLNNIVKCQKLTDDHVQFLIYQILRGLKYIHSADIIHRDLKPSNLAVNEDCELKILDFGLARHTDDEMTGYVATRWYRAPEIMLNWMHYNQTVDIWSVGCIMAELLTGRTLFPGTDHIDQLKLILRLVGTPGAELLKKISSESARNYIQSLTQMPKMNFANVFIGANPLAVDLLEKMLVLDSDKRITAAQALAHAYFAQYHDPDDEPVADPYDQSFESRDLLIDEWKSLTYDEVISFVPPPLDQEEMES
Protocol: as §1, with “Cells were lysed in buffer B (50 mM Tris-HCl, pH 7.5, 400 mM NaCl, 1 mM EDTA, 1 mM EGTA, 1% Triton, 0.5% NP-40, 10% glycerol, and supplemented with 20 mM β-glycerophosphate, 10 mM PNPP, 500 mM Na3VO4, 1 mM PMSF, 20 μg/ml aprotinin, 2.5 μg/ml leupeptin, 8.3 μg/ml bestatin, 1.7 μg/ml pepstatin, and 2 mM DTT).” left out
Cell lysates were incubated with anti-IKKα (Pharmingen), anti-HA (12CA5; Pharmingen), anti-JNK1 (333.8; Pharmingen), or anti-p38 (New England Biolabs) for 2 hours. […] Endogenous IKK, HA-tagged IKKα, endogenous JNK1, and p38 activities were determined with GST-1κBα(1-54), GST-c-Jun(1-79), and GST-ATF2 as substrates. […]

SMILES	effect on NF-κB activation (NF-κB [1])	IC50 (NF-κB [1]; TNFα, read-out: IC50 for inhibition of NF-κB DNA binding activity) [µM]	IC50 (NF-κB [1]; TNFα, read-out: IC50 for inhibition of NF-κB DNA-binding activity) [µM]	inhibition of NF-κB activation by TPA (NF-κB [2])	sensitivity of recombinant IKKβ(C179A) (IKKβ(C179A))	effect on activation of p38 MAP kinase (p38)	IC50 (NF-κB [1]; read-out: IC50 towards NF-κB) [µM]	IC50 (NF-κB [1]; read-out: half-maximal inhibition towards NF-κB) [µM]
CCCCC/C=C/C=C1/C(=O)C=C[C@@H]1C/C=C\CCCC(=O)O [15dPGJ2, 15-deoxy-Δ^12-14-PGJ2]	inhibited	2.25	2.25	potent inhibitor	resistant	–	–	–
CCCCC[C@H](O)/C=C/[C@H]1C=CC(=O)C1CCCCCCC(=O)O (stereo partly shown) [PGA1, prostaglandin A1]	prevented	–	–	–	resistant	did not inhibit	65	65
